# According to patent publication US4395969A (priority 1981, dated 1983):
# Read-outs that look alike come from different tables or passages of the source.
# Columns and labels:
# [1] = test system: bridgelip sucker; set-up: species or system Catastomus columbianus; conditions: in vivo
# [2] = test system: steelhead trout; conditions: in vivo
# [3] = test system: bridgelip sucker; assay: Selectivity and safety indices of salmonids versus the bridgelip sucker; format: in vivo, Catastomus columbianus; conditions: steelhead trout; 24 h
# Text: Delineation bioassays determined primarily the LC50 and LC100 of sucker and stickleback and the LC0 and LC50 of salmonids.
# The statistical LC1, LC50, and LC99 were interpolated and/or extrapolated using probit graph paper to approximate the LC0, LC50, and LC100 when the latter set of values was not closely determined by single concentrations in a series.
# The approximate LC50 and LC100 of the target fishes (threespine and brook sticklebacks and bridgelip and white suckers) are tabulated in Table 1. The 96-hour selectivity and safety indices of selected species of salmonids versus the three-spine stickleback are tabulated in Table 3.
# Threespine stickleback, brook stickleback, bridgelip sucker, white sucker, chinook salmon, coho salmon, sockeye salmon, kokanee, Kamloops trout, cutthroat trout, and brook trout were treated with various concentrations of 2, 2, 2, 1-tetrachloroethyl diethyl phosphate and at various temperatures to determine approximate selectivity and safety indices. The approximate LC50 and LC100 of the target fishes (threespine and brook sticklebacks and bridgelip and white suckers) are tabulated in Table 5. The 96-hour selectivity and safety indices of selected species of salmonids versus the threespine stickleback are tabulated in Table 7.
# [4] = test system: salmonids
# [5] = test system: sucker and stickleback; conditions: in vivo
# [6] = test system: threespine stickleback; set-up: species or system Gasterosteus aculeatus; conditions: in vivo
# [7] = in vivo; conditions: chinook salmon
# [8] = test system: chinook salmon; conditions: in vivo
# [9] = test system: threespine stickleback; set-up: species or system Gasterosteus aculeatus; conditions: in vivo, 5760 min
# [10] = published literature; cited from earlier work
# [11] = test system: carp; conditions: used in ponds; cited from earlier work
# [12] = test system: sucker and stickleback; conditions: cited from earlier work
compound,measurement,setting,value
"CCOP(=O)(OCC)OC(Cl)CCl (stereo not shown) [1,2-dichloroethyl diethyl phosphate]",activity and selectivity of the two chemicals,[1],very similar
same,concentration of 100% mortality of sucker,[1],0.1 mg/L
same,concentration of almost 100% mortality of sucker,[1],0.3 mg/L
same,concentration below which almost no mortality occurred in trout,[2],below 3.0 mg/l
same,concentration below which no mortality occurred in steelhead,[2],below 5.0 mg/l
same,safety index,[3],10
same,selectivity index,[3],35
same,harm to salmonids,[4]; in vivo,harmless to salmonids
same,selectivity/specificity for sucker and stickleback,[5],extremely selective for suckers and stickleback
"CCOP(=O)(OCC)OC(Cl)=C(Cl)Cl [2,2,1-trichlorovinyl diethyl phosphate]",LC50,[6],0.008 µg/mL
same,LC100,[6],~11 µg/L
same,toxicity to stickleback,[6],"almost as toxic to stickleback as 2,2,2,1-tetrachloroethyl diethyl phosphate"
same,LC50,[7],0.018 to 0.02 µg/mL
same,LC0,[8]; chinook salmon,about 16 μg/l
same,activity relative to the dichloro-compounds,[5],about 100 times
"CCOP(=O)(OCC)OC(=C(Cl)Cl)P(=O)(OCC)OCC [2,2-dichloro-1-diethyl phosphonovinyl diethyl phosphate]",LC50,[6],0.008 µg/mL
same,LC50,[7],0.018 to 0.02 µg/mL
same,Safety index (LC0/LC100),[9],0.9
"COP(=O)(OC)OC=C(Cl)Cl [O,O-dimethyl O-(2,2-dichlorovinyl) phosphate]",carcinogenicity / residues,[10],none suggest that DDVP is a carcinogen or concentrates residues
same,injury to carp,[11],without injuring carp
same,selectivity for stickleback or suckers,[12]; in vivo,no selectivity for stickleback or suckers
"O=C(O)C(Cl)Cl [dichloroacetic acid, reference compound]",mortality,[8],suffered no mortalities
C=C(C)[C@H]1Cc2c(ccc3c2O[C@@H]2COc4cc(OC)c(OC)cc4[C@@H]2C3=O)O1 [rotenone],control of sucker and stickleback numbers by spot poisoning,[12]; background,ineffective in controlling sucker and stickleback numbers
"O,O-diethyl S-(2,2-dichlorovinyl) thiophosphate",activity and selectivity of the two chemicals,[1],very similar
same,concentration of 100% mortality of sucker,[1],0.1 mg/L
same,concentration below which no mortality occurred in steelhead,[2],below 1.0 mg/l
same,harm to salmonids,"[4]; 24-hour bioassays, about 15 C",harmless to salmonids
same,selectivity/specificity for sucker and stickleback,[5],extremely selective for suckers and stickleback
